Assay results from PMC4579270, “Identification and Characterization of an Irreversible Inhibitor of CDK2” (Chemistry & Biology, 2015).
Read-outs that look alike come from different tables or passages of the source.

Key:
Assay type in all cases: biochemical
CDK2^K88E/cyclin A = target: T1, CDK2^K88E/cyclin A (Homo sapiens, UniProt P24941, K88E); experiment: Bandshift kinase assay after incubation and dialysis, mutant
T1 construct: GST (N, cleaved yes); made in house; host or cells: Escherichia coli; phosphorylated in vitro by GST-CAK
Experimental: The bandshift experiment was repeated after incubating CDK2^K88E/cyclin A and CDK2^K89V/cyclin A with NU6300, NU6310, or DMSO followed by dialysis to remove unbound inhibitor (Figure S2G).
Figure S2, Related to Figure 3. Identification of the site of CDK2 modification by NU6300. (A-G) Single site CDK2 mutants CDK2D86A, CDK2K88E, and CDK2K89V identify the site of CDK2 modification by NU6300. These mutations change the CDK2 sequence to that of CDK7 and are known not to disrupt the CDK2 fold. Mass spectra of CDK2 mutants: […]
(G) Protein kinase activity of authentic CDK2 and single site CDK2 mutants following incubation with NU6300 or NU6310. Samples were taken at the indicated number of minutes after initiation of the reaction. Note that compared to authentic CDK2, the single site Lys88 and Lys89 mutants have a slower rate of reaction (Compare LHS panels). This drop in activity was expected because whereas the wild type protein was produced by co-expression with S. cerevisiae […]
the mutant proteins were activated by S. cerevisiae CAK1 phosphorylation in vitro– a relatively inefficient process as judged from the results of ESI-MS (Table S1). (H) NU6300 […]
NU6300 carbon atoms are coloured green. Rb, retinoblastoma protein, Phospho-Rb, […]
Protein expression and purification
Site-directed mutagenesis of CDK2 was performed using the QuikChange II kit (Stratagene) following the manufacturer’s instructions and verified by DNA sequencing.
Wild-type CDK2 phosphorylated at Thr160, untagged human cyclin A2 (residues 174-432), S. cerevisiae GST–CAK, GST–3C-protease and GST–pRb (residues 792–928) were expressed and purified as previously described (Brown et al., 1999a; Brown et al., 1999b; Welburn and Endicott, 2005). […]
CDK2/cyclin A (200 µM) was incubated overnight with 1 mM inhibitor or DMSO, and then dialysed for 8 h with regular replacement of dialysis buffer into HEPES-buffered saline (50 mM HEPES, pH 7.5, 250 mM NaCl, 0.02% MTG). […] Reactions were stopped by addition of SDS-PAGE loading buffer and analyzed by SDS-PAGE. […]

YES1 = YES1 (Homo sapiens, UniProt P07947); experiment: Dundee kinase screen re-test (standard format and 4 hour pre-incubation); details: YES1, 0.5µM
YES1, sequence (P07947 whole entry): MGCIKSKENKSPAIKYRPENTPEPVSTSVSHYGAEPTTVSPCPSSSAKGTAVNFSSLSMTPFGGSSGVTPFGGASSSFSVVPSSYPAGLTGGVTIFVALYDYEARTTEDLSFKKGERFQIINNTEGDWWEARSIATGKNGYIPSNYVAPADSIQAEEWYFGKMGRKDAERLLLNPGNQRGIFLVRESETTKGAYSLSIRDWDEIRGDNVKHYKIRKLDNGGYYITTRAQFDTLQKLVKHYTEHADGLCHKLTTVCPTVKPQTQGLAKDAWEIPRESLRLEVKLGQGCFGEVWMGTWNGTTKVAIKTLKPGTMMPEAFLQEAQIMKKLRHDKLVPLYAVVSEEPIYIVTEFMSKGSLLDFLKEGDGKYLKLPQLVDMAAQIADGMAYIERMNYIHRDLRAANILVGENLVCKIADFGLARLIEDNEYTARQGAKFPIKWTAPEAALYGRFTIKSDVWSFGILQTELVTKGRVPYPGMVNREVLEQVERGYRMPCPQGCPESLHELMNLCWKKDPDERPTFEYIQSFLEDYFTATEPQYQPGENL
Outline: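 Selectivity panel of 131 protein kinases, inhibitor tested at a single concentration of 1 µM; values are % kinase activity remaining, mean of duplicates. Re-test of selected kinases used 0.5 µM in the standard format and again after a 4 hour pre-incubation with the inhibitor.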

ROCK 2 = ROCK 2 (Homo sapiens, UniProt O75116); experiment: as above; details: ROCK 2, 0.5µM
ROCK 2, sequence (O75116 whole entry): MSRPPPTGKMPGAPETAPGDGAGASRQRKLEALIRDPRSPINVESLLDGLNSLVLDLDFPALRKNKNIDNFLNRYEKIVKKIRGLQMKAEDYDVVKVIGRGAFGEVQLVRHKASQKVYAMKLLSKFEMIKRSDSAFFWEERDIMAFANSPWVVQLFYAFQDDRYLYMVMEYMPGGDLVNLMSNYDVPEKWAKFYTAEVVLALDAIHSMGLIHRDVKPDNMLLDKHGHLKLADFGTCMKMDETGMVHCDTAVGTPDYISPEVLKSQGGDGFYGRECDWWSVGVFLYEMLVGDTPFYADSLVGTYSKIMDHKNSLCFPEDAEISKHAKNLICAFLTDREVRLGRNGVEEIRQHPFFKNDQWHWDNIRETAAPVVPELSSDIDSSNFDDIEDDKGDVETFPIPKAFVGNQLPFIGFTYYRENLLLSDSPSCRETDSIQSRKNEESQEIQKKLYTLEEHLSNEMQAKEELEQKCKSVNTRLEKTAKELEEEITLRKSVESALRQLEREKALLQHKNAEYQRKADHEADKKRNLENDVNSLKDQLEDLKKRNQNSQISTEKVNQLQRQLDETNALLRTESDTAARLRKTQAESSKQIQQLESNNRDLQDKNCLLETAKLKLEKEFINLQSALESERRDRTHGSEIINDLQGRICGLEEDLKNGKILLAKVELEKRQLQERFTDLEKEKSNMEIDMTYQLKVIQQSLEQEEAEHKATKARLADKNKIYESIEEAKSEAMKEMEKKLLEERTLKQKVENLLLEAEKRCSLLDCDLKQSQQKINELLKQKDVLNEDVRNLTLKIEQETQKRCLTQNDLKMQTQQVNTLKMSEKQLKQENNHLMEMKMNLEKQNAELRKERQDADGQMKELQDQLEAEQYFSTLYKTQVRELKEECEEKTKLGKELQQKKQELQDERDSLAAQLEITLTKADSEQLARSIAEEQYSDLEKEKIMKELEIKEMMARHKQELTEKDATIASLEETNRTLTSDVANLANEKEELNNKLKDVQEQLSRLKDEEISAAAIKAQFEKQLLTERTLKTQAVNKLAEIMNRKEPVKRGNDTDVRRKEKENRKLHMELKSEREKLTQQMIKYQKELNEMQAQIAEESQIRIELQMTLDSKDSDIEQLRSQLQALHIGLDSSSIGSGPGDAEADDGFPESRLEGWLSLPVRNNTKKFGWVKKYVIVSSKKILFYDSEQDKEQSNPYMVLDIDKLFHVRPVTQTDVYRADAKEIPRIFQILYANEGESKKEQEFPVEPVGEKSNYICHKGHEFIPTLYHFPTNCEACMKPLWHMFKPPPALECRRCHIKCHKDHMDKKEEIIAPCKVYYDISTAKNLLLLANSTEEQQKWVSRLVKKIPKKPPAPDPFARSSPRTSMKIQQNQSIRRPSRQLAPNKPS
Experimental: (§1) Prior to determining its cellular activity, we carried out a screen to assess its selectivity against a panel of 131 protein kinases under conditions that would not distinguish between a reversible or irreversible mode of action. […] These 13 kinases and 29 additional kinases, selected for their known sensitivity to other inhibitors within the purine series, were then tested in a modified screening format in which the assay was repeated following a 4-hr pre-incubation (Table S3B). […] However, conformational flexibility around the active site may promote such an interaction with a residue from another part of the structure ([Martin et al., 2012]).
(§2) Table S3, Related to Figure 4. NCL-0006300 protein kinase selectivity. […]
(§3) Dundee protein kinase screen (Bain et al., 2007). Values given are % activity remaining and are the average of duplicate measurements: 0-25% (red), 26-50% (yellow), 51-80% […]
(§4) (black) and above 81% (green). […]
(§5) (B) Selected kinases were re-tested in the Dundee kinase screen against NU6300 at a single concentration of 0.5 µM both in the standard assay format and following a 4 hour pre-incubation in the presence of NU6300. Kinases which have very low activity after the 4 hour incubation so that results might not be wholly reliable are boxed in salmon. Kinases where the activity after a 4 hour pre-incubation is < 50% that in the standard assay format are highlighted in red.

RSK1 = RSK1 (Homo sapiens, UniProt Q15418); experiment: as above; details: RSK1, 0.5µM
RSK1, sequence (Q15418 whole entry): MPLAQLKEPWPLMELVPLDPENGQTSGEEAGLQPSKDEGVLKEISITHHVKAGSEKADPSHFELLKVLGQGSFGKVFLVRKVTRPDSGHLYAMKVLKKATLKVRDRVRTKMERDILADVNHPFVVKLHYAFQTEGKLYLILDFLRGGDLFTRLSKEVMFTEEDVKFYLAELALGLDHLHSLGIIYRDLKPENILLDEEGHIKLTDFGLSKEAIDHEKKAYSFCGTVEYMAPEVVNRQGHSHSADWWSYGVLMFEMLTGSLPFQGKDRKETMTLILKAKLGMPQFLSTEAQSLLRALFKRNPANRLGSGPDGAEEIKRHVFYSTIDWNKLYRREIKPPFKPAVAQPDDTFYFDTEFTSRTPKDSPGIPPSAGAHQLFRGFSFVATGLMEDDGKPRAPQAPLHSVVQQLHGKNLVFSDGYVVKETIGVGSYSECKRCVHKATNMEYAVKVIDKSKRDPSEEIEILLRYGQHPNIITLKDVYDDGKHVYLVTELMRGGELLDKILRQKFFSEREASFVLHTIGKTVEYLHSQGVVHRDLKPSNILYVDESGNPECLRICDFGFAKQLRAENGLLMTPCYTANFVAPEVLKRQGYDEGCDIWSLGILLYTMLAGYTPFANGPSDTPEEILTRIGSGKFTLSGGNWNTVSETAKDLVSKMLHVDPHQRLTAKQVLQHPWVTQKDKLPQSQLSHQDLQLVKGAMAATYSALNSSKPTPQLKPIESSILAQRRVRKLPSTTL
Experimental: as §1, §2, §3, §4, §5

SIK2 = SIK2 (Homo sapiens, UniProt Q9H0K1); experiment: as above; details: SIK2, 0.5µM
SIK2, sequence (Q9H0K1 whole entry): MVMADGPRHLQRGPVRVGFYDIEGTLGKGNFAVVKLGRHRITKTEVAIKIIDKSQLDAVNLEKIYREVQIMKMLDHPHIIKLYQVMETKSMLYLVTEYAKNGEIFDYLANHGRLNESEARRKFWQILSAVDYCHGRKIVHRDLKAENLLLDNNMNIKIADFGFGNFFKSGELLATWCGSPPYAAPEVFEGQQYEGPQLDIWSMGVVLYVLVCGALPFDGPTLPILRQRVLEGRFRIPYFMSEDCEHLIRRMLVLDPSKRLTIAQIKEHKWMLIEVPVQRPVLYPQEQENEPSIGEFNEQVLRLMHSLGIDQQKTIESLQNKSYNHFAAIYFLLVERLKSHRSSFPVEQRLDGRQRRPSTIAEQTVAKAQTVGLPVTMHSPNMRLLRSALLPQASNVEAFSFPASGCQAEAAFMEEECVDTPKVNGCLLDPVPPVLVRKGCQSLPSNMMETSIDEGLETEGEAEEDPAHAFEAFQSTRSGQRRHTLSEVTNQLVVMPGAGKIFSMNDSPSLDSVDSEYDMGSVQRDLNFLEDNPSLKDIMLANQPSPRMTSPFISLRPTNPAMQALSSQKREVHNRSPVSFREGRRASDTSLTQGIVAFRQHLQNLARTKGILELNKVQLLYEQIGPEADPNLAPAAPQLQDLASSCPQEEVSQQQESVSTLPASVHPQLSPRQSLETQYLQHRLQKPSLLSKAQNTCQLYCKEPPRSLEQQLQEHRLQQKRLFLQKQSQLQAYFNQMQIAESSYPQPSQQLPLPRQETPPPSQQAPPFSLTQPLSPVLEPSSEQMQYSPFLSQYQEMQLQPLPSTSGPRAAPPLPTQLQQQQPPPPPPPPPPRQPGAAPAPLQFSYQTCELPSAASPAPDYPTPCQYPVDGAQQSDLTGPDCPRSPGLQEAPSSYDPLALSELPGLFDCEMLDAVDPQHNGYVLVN
Experimental: as §1, §2, §3, §4, §5

Src = Src (Homo sapiens, UniProt P12931); experiment: as above
Src, sequence (P12931 whole entry): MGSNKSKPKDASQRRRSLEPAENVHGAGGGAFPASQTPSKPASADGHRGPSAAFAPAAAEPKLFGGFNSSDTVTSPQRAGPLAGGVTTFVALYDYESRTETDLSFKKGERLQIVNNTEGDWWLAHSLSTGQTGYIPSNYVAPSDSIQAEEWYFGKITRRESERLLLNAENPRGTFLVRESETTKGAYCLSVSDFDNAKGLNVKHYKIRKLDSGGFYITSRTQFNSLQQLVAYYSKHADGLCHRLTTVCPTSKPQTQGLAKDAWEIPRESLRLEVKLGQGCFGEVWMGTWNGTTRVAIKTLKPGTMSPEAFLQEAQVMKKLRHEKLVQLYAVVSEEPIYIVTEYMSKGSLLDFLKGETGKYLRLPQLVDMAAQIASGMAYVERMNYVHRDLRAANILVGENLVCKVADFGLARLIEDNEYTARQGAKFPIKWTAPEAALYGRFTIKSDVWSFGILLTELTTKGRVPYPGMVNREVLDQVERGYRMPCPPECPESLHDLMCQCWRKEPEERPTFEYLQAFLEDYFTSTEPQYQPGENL
Experimental: as §1, §2, §3, §4, §5

[1] = 4hr RT preincubation, read-out: %Remaining activity at 0.5µM NU6300 - 4hr RT preincubation
[2] = usual format, read-out: %Remaining activity at 0.5µM NU6300 - Usual assay format

Structure (SMILES) | CDK2 activity against Rb after incubation with inhibitor and dialysis (CDK2^K88E/cyclin A) | remaining activity at 0.5 µM (YES1; [1]) | remaining activity at 0.5 µM (YES1; [2]) | remaining activity at 0.5 µM (ROCK 2; [1]) | remaining activity at 0.5 µM (ROCK 2; [2]) | remaining activity at 0.5 µM (RSK1; [1]) | remaining activity at 0.5 µM (RSK1; [2]) | remaining activity at 0.5 µM (SIK2; [1]) | remaining activity at 0.5 µM (SIK2; [2]) | remaining activity at 0.5 µM (Src; [1]) | remaining activity at 0.5 µM (Src; [2])
CCS(=O)(=O)c1ccc(Nc2nc(OCC3CCCCC3)c3nc[nH]c3n2)cc1 [NU6310, 6-(cyclohexylmethoxy)-N-(4-(ethylsulfonyl)phenyl)-9H-purin-2-amine] | recovered their activity |  |  |  |  |  |  |  |  |  | 
C=CS(=O)(=O)c1ccc(Nc2nc(OCC3CCCCC3)c3nc[nH]c3n2)cc1 [NU6300, 6-(cyclohexylmethoxy)-N-(4-(vinylsulfonyl)phenyl)-9H-purin-2-amine] |  | 135% | 43% | 47% | 46% | 131% | 83% | 69% | 39% | 54% | 48%
